Test results: patent publication US10344019B2 (priority 2010, dated 2019)
Read-outs that look alike come from different tables or passages of the source.

Assays:
Assay type in all cases: cell-based
[1] = system: HCV 2a Rluc cells (NS5A chimeric genotype 2a JFH-1 replicon with genotype 2a J6 strain NS5A gene, M31 present); assay: HCV replicon reporter assay, genotype 2a J6 (M31 present); conditions: Hepatitis C virus, read-out: 2a J6
Description: Evaluation of cell-based anti-HCV activity: Antiviral potency (EC50) was determined using a Renilla luciferase (RLuc)-based HCV replicon reporter assay. To perform the assay for genotype 1 and 2a JFH-1, HCV 1b RLuc cells (harboring a dicistronic genotype 1b Con1 replicon that encodes a RLuc reporter), or HCV 1a RLuc cells (harboring a dicistronic genotype 1a H77 replicon that encodes a RLuc reporter), or HCV 2a JFH-1 Rluc cells (harboring a dicistronic genotype 2a JFH-1 replicon that encodes a RLuc reporter) were dispensed into 384-well plates. To perform the assay for genotype 2a (with M31 present) or 2b, HCV 2a Rluc or 2b Rluc cells (both with M31 present) harboring a dicistronic NS5A chimeric genotype 2a JFH-1 replicon that encodes a RLuc reporter and either genotype 2a J6 strain NS5A gene or genotype 2b MD2b-1 NS5A gene (based on Los Alamos HCV database isolates, both with M31 present) respectively, were dispensed into 384-well plates. To perform the assay for genotype 3 and 4, HCV 3a RLuc or 4a Rluc cells harboring a dicistronic NS5A chimeric genotype 1b Con1 replicon that encodes a RLuc reporter and either a consensus genotype 3a NS5A gene or genotype 4a NS5A gene (based on Los Alamos HCV database isolates) respectively, were dispensed into 384-well plates. Compounds were re-suspended in DMSO at a concentration of 10 mM and serially diluted in DMSO either manually or using an automated pipeting instrument. Serially diluted compounds were mixed with cell culture media and added to the seeded cells. […] 72 hours later, cells were lysed and Renilla luciferase activity quantified as recommended by the manufacturer (Promega-Madison, Wis.). Non-linear regression was performed to calculate EC50 values.

[2] = system: HCV 4a Rluc cells (NS5A chimeric genotype 1b Con1 replicon with genotype 4a NS5A gene); assay: microbe, parasite or virus in culture; conditions: Hepatitis C virus, read-out: 4a
Summary of the method: (§1)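 Replicon cells stably carrying the listed RLuc-encoding dicistronic replicons were seeded and treated with DMSO serial dilutions of compound (10 mM stocks) diluted into culture medium. After 72 h, cells were lysed and Renilla luciferase activity measured. EC50 was derived by non-linear regression.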

[3] = system: HCV 1b RLuc cells (dicistronic genotype 1b Con1 replicon, RLuc reporter); assay: microbe, parasite or virus in culture; conditions: Hepatitis C virus, read-out: 1b (nM)
Summary of the method: (§2)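 Renilla luciferase HCV replicon cells: dicistronic 1b Con1, 1a H77 or 2a JFH-1 replicons, or a JFH-1 chimera carrying J6 NS5A (M31 present). Compound in DMSO serial dilutions, 72 h incubation, then lysis and luciferase read. EC50 by non-linear regression.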

[4] = system: HCV 1a RLuc cells (dicistronic genotype 1a H77 replicon, RLuc reporter); assay: microbe, parasite or virus in culture; conditions: Hepatitis C virus, read-out: 1a
Summary of the method: as §2

[5] = system: HCV 2a JFH-1 Rluc cells (dicistronic genotype 2a JFH-1 replicon, RLuc reporter); assay: microbe, parasite or virus in culture; conditions: Hepatitis C virus, genotype 2a JFH-1 replicon, read-out: 2a JFH
Summary of the method: as §2

[6] = system: HCV 3a RLuc cells (NS5A chimeric genotype 1b Con1 replicon with consensus genotype 3a NS5A gene); assay: microbe, parasite or virus in culture; conditions: Hepatitis C virus
Summary of the method: as §1

[7] = read-out: 3a, genotype 3a replicon
[8] = 72 h, Table 2, genotype 1a H77 replicon, 72 hours
[9] = read-out: 3a, Table 2, genotype 3a NS5A chimeric replicon
[10] = genotype 1a H77 replicon, RLuc reporter
[11] = read-out: 3a, genotype 3a NS5A chimeric 1b Con1 replicon
[12] = 72 h, Table 1, genotype 1a H77 replicon, 72 hours
[13] = read-out: 3a, Table 1, genotype 3a NS5A chimeric replicon

Compound: COC(=O)N[C@H](C(=O)N1[C@@H]2CC[C@@H](C2)[C@H]1c1nc2ccc3cc(-c4ccc(-c5cnc([C@@H]6C[C@H]7C[C@H]7N6C(=O)[C@@H](NC(=O)OC)C(C)C)[nH]5)c(F)c4)ccc3c2[nH]1)C(C)C [Example 391]
- EC50 [1]: > 44 nM
- EC50 [2]: 0.001 to 0.99 nM
- EC50 [3]: 0.009 nM
- EC50 ([4]; genotype 1a replicon): 0.001 to 0.999 nM
- EC50 [5]: 0.001 to 0.999 nM
- EC50 [6, 7]: > 5 nM

Compound: COC(=O)NC(C(=O)N1CCC[C@H]1c1ncc(-c2ccc(-c3ccc4c(ccc5nc([C@@H]6[C@H]7CC[C@H](C7)N6C(=O)[C@@H](NC(=O)OC)C(C)C)[nH]c54)c3)cc2)[nH]1)C(C)C (stereo partly shown) [Example 65]
- EC50 [1]: > 44 nM
- EC50 [2]: 0.001 to 0.99 nM
- EC50 ([3]; 72 h): 0.015 nM
- EC50 [4, 8]: 0.001 to 0.999 nM
- EC50 ([5]; 72 h, Table 2, 72 hours): 0.001 to 0.999 nM
- EC50 [6, 9]: 0.001 to 0.99 nM

Compound: COC(=O)N[C@H](C(=O)N1[C@@H]2CC[C@@H](C2)[C@H]1c1nc2ccc3cc(-c4ccc5c(ccc6nc([C@@H]7CCCN7C(=O)[C@H](NC(=O)OC)c7ccccc7)[nH]c65)c4)ccc3c2[nH]1)C1CCOCC1 [Example 345]
- EC50 [1]: 0.001 to 0.999 nM
- EC50 [2]: 0.001 to 0.99 nM
- EC50 [3]: 0.066 nM
- EC50 ([4]; genotype 1a replicon): 0.001 to 0.999 nM
- EC50 [5]: 0.001 to 0.999 nM
- EC50 [6, 7]: 0.001 to 0.99 nM

Compound: COC(=O)N[C@H](C(=O)N1CCC[C@H]1c1ncc(-c2ccc(-c3ccc(-c4ccc5cc(-c6cnc([C@@H]7CCCN7C(=O)[C@H](NC(=O)OC)c7ccccc7)[nH]6)ccc5c4)cc3)cc2)[nH]1)C(C)C [Example 197]
- EC50 [2]: 0.001 to 0.99 nM
- EC50 [3]: 0.01 nM
- EC50 [4, 10]: 1 to 44 nM
- EC50 ([5]; RLuc reporter): 1 to 44 nM
- EC50 [6, 11]: 0.001 to 0.99 nM

Compound: COC(=O)N[C@H](C(=O)N1CCC[C@H]1c1ncc(-c2ccc3c4ccc(-c5cnc([C@@H]6CCCN6C(=O)[C@@H](NC(=O)OC)C(C)C)[nH]5)cc4c4nc5ccccc5nc4c3c2)[nH]1)C(C)C [Example 19]
- EC50 [2]: 0.001 to 0.99 nM
- EC50 ([3]; 72 h): 0.01 nM
- EC50 [4, 12]: 1 to 44 nM
- EC50 ([5]; 72 h, Table 1, 72 hours): 1 to 44 nM
- EC50 [6, 13]: > 5 nM

Compound: COC(=O)N[C@@H](C(=O)N1CCC[C@H]1c1ncc(-c2ccc3c(c2)COc2c-3ccc3cc(-c4cnc([C@@H]5CCCN5C(=O)OCc5ccccc5)[nH]4)ccc23)[nH]1)c1ccccc1 [Example 5]
- EC50 [2]: 0.001 to 0.99 nM
- EC50 ([3]; 72 h): 0.037 nM
- EC50 [4, 12]: > 44 nM
- EC50 ([5]; 72 h, Table 1, 72 hours): 1 to 44 nM
- EC50 [6, 13]: 0.001 to 0.99 nM

Compound: COC(=O)NC(C(=O)N1CCC[C@H]1c1ncc(-c2ccc(-c3ccc4cc(-c5cnc([C@@H]6CCCN6C(=O)C(NC(=O)OC)C(C)C)[nH]5)ccc4c3)cc2)[nH]1)C(C)C (stereo partly shown) [Example 136]
- EC50 [2]: 0.001 to 0.99 nM
- EC50 [3]: 0.005 nM
- EC50 [4, 10]: 0.001 to 0.999 nM
- EC50 ([5]; RLuc reporter): 0.001 to 0.999 nM
- EC50 [6, 11]: 0.001 to 0.99 nM

Compound: COC(=O)N[C@H](C(=O)N1CCC[C@H]1c1nc2ccc3cc(-c4ccc5c(c4)CCc4nc([C@@H]6[C@H]7CC[C@H](C7)N6C(=O)[C@@H](NC(=O)OC)C6CCOCC6)[nH]c4-5)ccc3c2[nH]1)C(C)C [Example 89]
- EC50 [2]: 0.001 to 0.99 nM
- EC50 ([3]; 72 h): 0.064 nM
- EC50 [4, 8]: 0.001 to 0.999 nM
- EC50 ([5]; 72 h, Table 2, 72 hours): 0.001 to 0.999 nM
- EC50 [6, 9]: 0.001 to 0.99 nM

Compound: COC(=O)N[C@H](C(=O)N1CCC[C@H]1c1ncc(-c2ccc3c(c2)C(F)(F)c2cc(-c4ccc5nc([C@@H]6CCCN6C(=O)[C@H](NC(=O)OC)c6ccccc6)[nH]c5c4)ccc2-3)[nH]1)C1CCOCC1 [Example 259]
- EC50 [2]: 0.001 to 0.99 nM
- EC50 [3]: 0.014 nM
- EC50 [4, 10]: 0.001 to 0.999 nM
- EC50 ([5]; RLuc reporter): 0.001 to 0.999 nM
- EC50 [6, 11]: 0.001 to 0.99 nM

Compound: COC(=O)N[C@H](C(=O)N1CCC[C@H]1c1ncc(-c2ccc3c(c2)C(F)(F)c2cc(-c4ccc5nc([C@@H]6[C@H]7CC[C@H](C7)N6C(=O)[C@H](NC(=O)OC)c6ccccc6)[nH]c5c4)ccc2-3)[nH]1)C(C)C [Example 40]
- EC50 [2]: 0.001 to 0.99 nM
- EC50 ([3]; 72 h): 0.005 nM
- EC50 [4, 8]: 0.001 to 0.999 nM
- EC50 ([5]; 72 h, Table 2, 72 hours): 0.001 to 0.999 nM
- EC50 [6, 9]: 1 to 4.99 nM

Compound: COC(=O)N[C@H](C(=O)N1CCC[C@H]1c1nc2ccc3cc(-c4ccc5cc(-c6cnc([C@@H]7[C@H]8CC[C@H](C8)N7C(=O)[C@H](NC(=O)OC)c7ccccc7)[nH]6)ccc5c4)ccc3c2[nH]1)C1CCOCC1 [Example 84]
- EC50 [2]: 0.001 to 0.99 nM
- EC50 ([3]; 72 h): 0.007 nM
- EC50 [4, 8]: 0.001 to 0.999 nM
- EC50 ([5]; 72 h, Table 2, 72 hours): 0.001 to 0.999 nM
- EC50 [6, 9]: 0.001 to 0.99 nM

Compound: COC(=O)N[C@H](C(=O)N1CC2(CC2)C[C@H]1c1ncc(-c2ccc(-c3ccc4cc(-c5cnc([C@@H]6CCCN6C(=O)[C@H](NC(=O)OC)c6ccccc6)[nH]5)ccc4c3)cc2)[nH]1)C1CCOCC1 [Example 234]
- EC50 [2]: 0.001 to 0.99 nM
- EC50 [3]: 0.011 nM
- EC50 [4, 10]: 0.001 to 0.999 nM
- EC50 ([5]; RLuc reporter): 0.001 to 0.999 nM
- EC50 [6, 11]: 0.001 to 0.99 nM

Compound: COC(=O)N[C@H](C(=O)N1CCC[C@H]1c1nc(Cl)c(-c2ccc(-c3ccc4cc(-c5[nH]c([C@@H]6CCCN6C(=O)[C@@H](NC(=O)OC)C(C)C)nc5Cl)ccc4c3)cc2)[nH]1)C(C)C [Example 380]
- EC50 [2]: 0.001 to 0.99 nM
- EC50 [3]: 0.006 nM
- EC50 ([4]; genotype 1a replicon): 0.001 to 0.999 nM
- EC50 [5]: 0.001 to 0.999 nM
- EC50 [6, 7]: > 5 nM

Compound: COC(=O)N[C@H](C(=O)N1CCC[C@H]1c1ncc(-c2cc3c4c(c2)OCc2cc(-c5cnc([C@@H]6CCCN6C(=O)[C@@H](NC(=O)OC)C6CCCC6)[nH]5)cc(c2-4)OC3)[nH]1)C1CCCC1 [Example 377]
- EC50 [2]: 0.001 to 0.99 nM
- EC50 [3]: 0.022 nM
- EC50 ([4]; genotype 1a replicon): 0.001 to 0.999 nM
- EC50 [5]: 0.001 to 0.999 nM
- EC50 [6, 7]: 0.001 to 0.99 nM

Compound: COC(=O)N[C@H](C(=O)N1CCC[C@H]1c1ncc(-c2ccc3c(c2)COc2c-3ccc3cc(-c4cnc([C@@H]5CCCN5C(=O)OCc5ccccc5)[nH]4)ccc23)[nH]1)C1CCOCC1 [Example 6]
- EC50 [2]: 0.001 to 0.99 nM
- EC50 ([3]; 72 h): 0.051 nM
- EC50 [4, 12]: 1 to 44 nM
- EC50 ([5]; 72 h, Table 1, 72 hours): 1 to 44 nM
- EC50 [6, 13]: > 5 nM

Compound: COC(=O)N[C@H](C(=O)N1CCC[C@H]1c1nc2ccc3cc(-c4ccc(-c5cnc([C@@H]6CCCN6C(=O)[C@@H](NC(=O)OC)C6CCOCC6)[nH]5)cc4C#CC4CC4)ccc3c2[nH]1)C(C)C [Example 350]
- EC50 [2]: 0.001 to 0.99 nM
- EC50 [3]: 0.02 nM
- EC50 ([4]; genotype 1a replicon): 0.001 to 0.999 nM
- EC50 [5]: 0.001 to 0.999 nM
- EC50 [6, 7]: 0.001 to 0.99 nM

Compound: COC(=O)N[C@H](C(=O)N1CCC[C@H]1c1ncc(-c2cc3c4c(c2)CCc2cc(-c5cnc([C@@H]6CCCN6C(=O)[C@@H](NC(=O)OC)C6CCOCC6)[nH]5)cc(c2-4)CC3)[nH]1)C(C)C [Example 23]
- EC50 [2]: 0.001 to 0.99 nM
- EC50 ([3]; 72 h): 0.067 nM
- EC50 [4, 12]: 0.001 to 0.999 nM
- EC50 ([5]; 72 h, Table 1, 72 hours): 0.001 to 0.999 nM
- EC50 [6, 13]: 0.001 to 0.99 nM
